In this data set the test system is CCRIS mutagenicity, Ames/micronucleus/aberration tests. Kind of data set: CCRIS mutagenicity studies. The following applies: Test System: AMES SALMONELLA TYPHIMURIUM
Where [1] appears, read: Strain/Indicator: TA98, Metabolic Activation: NONE, Method: STANDARD PLATE.
[2] abbreviates: Strain/Indicator: TA98, Metabolic Activation: RAT, LIVER, S-9, AROCLOR 1254, Method: STANDARD PLATE.
Setting [3] is: Strain/Indicator: TA100, Metabolic Activation: RAT, LIVER, S-9, AROCLOR 1254, Method: STANDARD PLATE.
The mark [4] stands for this setting: Strain/Indicator: TA1535, Metabolic Activation: NONE, Method: STANDARD PLATE.
The mark [5] stands for this setting: Strain/Indicator: TA1535, Metabolic Activation: RAT, LIVER, S-9, AROCLOR 1254, Method: STANDARD PLATE.
The mark [6] stands for this setting: Strain/Indicator: TA1537, Metabolic Activation: NONE, Method: STANDARD PLATE.
Where [7] appears, read: Strain/Indicator: TA1537, Metabolic Activation: RAT, LIVER, S-9, AROCLOR 1254, Method: STANDARD PLATE.
Setting [8] is: Strain/Indicator: TA1538, Metabolic Activation: NONE, Method: STANDARD PLATE.
The mark [9] stands for this setting: Strain/Indicator: TA100, Metabolic Activation: NONE, Method: STANDARD PLATE.

Four compounds from PubChem BioAssay AID1259407 (Chemical Carcinogenesis Research Information System (CCRIS), 2018) can be followed below.

The source made the active and inactive calls. The rule behind the calls is not given here.

Turning to `CCOc1cccc(N)c1`, the mutagenic call (Strain/Indicator: TA97, Metabolic Activation: HAMSTER, LIVER, S-9, AROCLOR 1254 (30%), Method: PREINCUBATION) was “inactive; negative”; the mutagenic call (Strain/Indicator: TA98, Metabolic Activation: HAMSTER, LIVER, S-9, AROCLOR 1254 (5 OR 10%), Method: PREINCUBATION) was “inactive; negative”; the mutagenic call (Strain/Indicator: TA98, Metabolic Activation: HAMSTER, LIVER, S-9, AROCLOR 1254 (30%), Method: PREINCUBATION) was “inactive; negative”; the mutagenic call (Strain/Indicator: TA98, Metabolic Activation: NONE, Method: PREINCUBATION) was “inactive; negative”; the mutagenic call (Strain/Indicator: TA98, Metabolic Activation: RAT, LIVER, S-9, AROCLOR 1254 (5 OR 10%), Method: PREINCUBATION) was “inactive; negative”; the mutagenic call (Strain/Indicator: TA98, Metabolic Activation: RAT, LIVER, S-9, AROCLOR 1254 (30%), Method: PREINCUBATION) was “inactive; negative”. Also, the mutagenic call runs as follows: (Strain/Indicator: TA100, Metabolic Activation: HAMSTER, LIVER, S-9, AROCLOR 1254 (5, 10 OR 30%), Method: PREINCUBATION) “inactive; negative”; (Strain/Indicator: TA100, Metabolic Activation: NONE, Method: PREINCUBATION) “inactive; negative”; (Strain/Indicator: TA100, Metabolic Activation: RAT, LIVER, S-9, AROCLOR 1254 (5, 10 OR 30%), Method: PREINCUBATION) “inactive; negative”; (Strain/Indicator: TA1535, Metabolic Activation: HAMSTER, LIVER, S-9, AROCLOR 1254 (5, 10 OR 30%), Method: PREINCUBATION) “inactive; negative”; (Strain/Indicator: TA1535, Metabolic Activation: RAT, LIVER, S-9, AROCLOR 1254 (5, 10 OR 30%), Method: PREINCUBATION) “inactive; negative”.

Consider `O=C1c2cccc(O)c2C(=O)c2cccc(O)c21`, for which the mutagenic call was “active; positive” under setting [1]; “active; positive” under setting [2]; “inactive; negative” under setting [3]; “inactive; negative” under setting [4]; “inactive; negative” under setting [5]; “active; positive” under setting [6]. Moreover, the mutagenic call was “active; positive” under setting [7]; “active; positive” (Strain/Indicator: TA1537, Metabolic Activation: RAT, LIVER, S-9, Method: PREINCUBATION); “active; positive” under setting [8]; “inactive; negative” (Strain/Indicator: TA1978, Metabolic Activation: NONE, Method: STANDARD PLATE); “inactive; negative” (Strain/Indicator: TA1978, Metabolic Activation: RAT, LIVER, S-9, AROCLOR 1254, Method: STANDARD PLATE); “active; positive” (Strain/Indicator: TA2637, Metabolic Activation: RAT, LIVER, S-9, 5,6-BENZOFLAVONE AND/OR SODIUM PHENOBARBITAL, Method: PREINCUBATION). The mutagenic call (Strain/Indicator: TA2637, Metabolic Activation: RAT, LIVER, S-105, 5,6-BENZOFLAVONE AND/OR SODIUM PHENOBARBITAL, Method: PREINCUBATION) is “inactive; negative”.

As to `COc1cc(CNC(=O)CCCCCCC(C)C)ccc1O`, the mutagenic call is, setting by setting: (Strain/Indicator: TA98, Metabolic Activation: HAMSTER, LIVER, S-9, AROCLOR 1254, Method: STANDARD PLATE) “inactive; negative”; under setting [2], “inactive; negative”; (Strain/Indicator: TA100, Metabolic Activation: HAMSTER, LIVER, S-9, AROCLOR 1254, Method: STANDARD PLATE) “inactive; negative”; under setting [9], “inactive; negative”; under setting [3], “inactive; negative”; (Strain/Indicator: TA1535, Metabolic Activation: HAMSTER, LIVER, S-9, AROCLOR 1254, Method: STANDARD PLATE) “inactive; negative”. In addition, the mutagenic call by setting is: under setting [4], “inactive; negative”; under setting [5], “inactive; negative”; (Strain/Indicator: TA1537, Metabolic Activation: HAMSTER, LIVER, S-9, AROCLOR 1254, Method: STANDARD PLATE) “inactive; negative”; under setting [6], “inactive; negative”; under setting [7], “inactive; negative”; (Strain/Indicator: TA1538, Metabolic Activation: HAMSTER, LIVER, S-9, AROCLOR 1254, Method: STANDARD PLATE) “inactive; negative”. Further, the mutagenic call under setting [8] was “inactive; negative” and the mutagenic call (Strain/Indicator: TA1538, Metabolic Activation: RAT, LIVER, S-9, AROCLOR 1254, Method: STANDARD PLATE) was “inactive; negative”.

Consider `c1ccc2nc3ccccc3cc2c1`, for which the mutagenic call is “inactive; negative” (Strain/Indicator: TA97, Metabolic Activation: NONE, Method: STANDARD PLATE); “inactive; negative” (Strain/Indicator: TA97, Metabolic Activation: RAT, LIVER, S-9, AROCLOR 1254, Method: STANDARD PLATE); “inactive; negative” under setting [1]; “inactive; negative” under setting [2]; “inactive; negative” under setting [9]; “inactive; negative” under setting [3]. Also, the mutagenic call is “inactive; negative” (Strain/Indicator: TA1535, Metabolic Activation: NONE, Method: PREINCUBATION); “inactive; negative” (Strain/Indicator: TA1535, Metabolic Activation: RAT, LIVER, S-9, TETRACHLOROBIPHENYL, Method: PREINCUBATION); “inactive; negative” (Strain/Indicator: TA1537, Metabolic Activation: NONE, Method: PREINCUBATION); “active; positive” (Strain/Indicator: TA1537, Metabolic Activation: RAT, LIVER, S-9, TETRACHLOROBIPHENYL, Method: PREINCUBATION); “inactive; negative” (Strain/Indicator: TA1538, Metabolic Activation: NONE, Method: PREINCUBATION); “inactive; negative” (Strain/Indicator: TA1538, Metabolic Activation: RAT, LIVER, S-9, TETRACHLOROBIPHENYL, Method: PREINCUBATION).
